Source: patent publication US20080182806A1, “USE OF ACETYLATED OR ESTERIFICATED AZACYTIDINE, DECITABINE, OR OTHER NUCLEOSIDE ANALOGS AS ORAL AGENTS FOR THE TREATMENT OF TUMORS OR OTHER DYSPLASTIC SYNDROMES SENSITIVE TO HYPOMETHYLATING AGENTS” (Nevada Cancer Institute, priority 2007, published 2008)

Key:
[1] = system: myelodysplastic syndromes; details: 15 mg/m^2 intravenously over 4 hours three times a day for 3 days; cited from earlier work
[2] = Pharmacokinetics and metabolism of TAC in mice (plasma LC/MS/MS); format: in vivo; details: female, C57/BL6, mouse
Protocol: The title product and its active metabolite azacytidine (ACT) were then subjected to LC/MS/MS analysis using the following protocol. Stock solutions were prepared by weighing out 5-10 mg of TAC which was dissolves in methanol to a final concentration of about 0.5 mg/ml. The solution was labeled as “TAC Stock.” 2-3 mg of ACT were then weighed and dissolved in methanol to a final concentration of about 0.2 mg/ml. The solution was labeled as “ACT Stock.” Finally, the TAC and ACT stocks were diluted to a concentration of about 50 μg/ml in methanol, and labeled as “ACT/TAC Stock.” All solutions were stored at −20° C. […]
Samples were then initially prepared as follows. A measured aliquot of the acetonitrile extracted plasma sample was removed and placed into a 10×75 mm disposable glass test tube, followed by evaporating liquid down to approximately 50 μl under nitrogen at 37° C., diluting with 1 ml 2% phosphoric acid, and vortexing for 10 seconds at 3,000 rpm.
The samples were then analyzed by the SPE, HPLC and MS/MS methods. […]
Individual concentration-time data were analyzed using noncompartmental methods using WinNonlin Professional (Pharsight, Mountain View, Calif.). […] The terminal rate constant (λz) is determined from the slope of the terminal phase of the plasma concentration-time curve using uniform weight. The terminal half-life (T1/2) was calculated as 0.693 divided by λz. […]

global DNA methylation = test: Global DNA methylation in mouse tissues (Epigentek Methylamp Global DNA Methylation Quantification Kit); format: in vivo, mice; details: for effect on global DNA methylation in the kidneys after 48 hours / reduction in global DNA methylation in the kidneys: 38 mg/kg TAC p.o. or 25 mg/kg ACT i.v.; for reduction in global DNA methylation in the kidneys: within 24 hours
Protocol: The pharmacodynamic effect of TAC and ACT was determined at 24 and 48 hours following drug administration after the female C57/BL6 mice were euthanized, their tissues rapidly harvested, snap-frozen in liquid nitrogen, and stored at −80° C. The effect on methylation was determined by using the Epigentek Methylamp™ Global DNA Methylation Quantification Kit. Isolated genomic DNA from mouse tissues 24 or 48 hours after treatment with 25 mg/kg ACT i.v. and 38 mg/kg TAC p.o., methylation status was determined using 100 ng of each gDNA sample.

Lymphoid leukemia L1210 = test: Survival of leukemic BDF1 mice inoculated i.p. with L1210 cells; format: in vivo
Protocol: Lymphoid leukemia L1210 was carried in BDF1 mice by weekly i.p. passages. Ascites fluid was aspirated from a donor mouse and sampled, and an aliquot was carefully diluted and counted in a hemocytometer. The original suspension of cells was then diluted appropriately in […] medium to 1×10^6 cells/ml. and injected i.p. (1×10^5 cells/0.1 ml/mouse) into recipient BDF1 mice.
A daily oral administration injection of TAC (38 mg/kg) diluted in PBS was given to leukemic BDF1 mice by oral gavage starting 24 hours from the inoculation of L1210 cells for a total of 5 days. A group of untreated leukemic mice of the same strain, sex, age, and weight served as controls.

[3] = system: myelodysplastic syndromes; details: 75 mg/m^2 subcutaneously daily for 7 days every 4 weeks, cited from earlier work

Structure (SMILES): Nc1ncn([C@H]2C[C@H](O)[C@@H](CO)O2)c(=O)n1 [decitabine, 4-amino-1-(2-deoxy-b-D-erythro-pentofuranosyl)-1,3,5-triazin-2(1H)-one]
- overall response rate [1]: 49%

Structure (SMILES): CC(=O)OC[C@H]1O[C@@H](n2cnc(N)nc2=O)[C@H](OC(C)=O)[C@@H]1OC(C)=O [TAC, 2′,3′,5′-triacetyl-5-azacytidine]
- concentration at 4 h ([2]; plasma, by 4 hours after oral administration of 38 mg/kg TAC, read-out: TAC plasma concentration (below the limit of detection)): < 30 ng/mL
- effect on global DNA methylation in the kidneys after 48 hours (global DNA methylation): subsided
- reduction in global DNA methylation in the kidneys (global DNA methylation): 50%
- further decrease in methylation in spleen compared to untreated tissue (global DNA methylation; spleen, later time point, oral TAC 38 mg/kg): 40%
- median survival time (Lymphoid leukemia L1210; TAC 38 mg/kg daily by oral gavage for 5 days, starting 24 hours after L1210 inoculation): 14 days
- increased lifespan (Lymphoid leukemia L1210; TAC 38 mg/kg daily oral for 5 days versus untreated control group): 55%

Structure (SMILES): Nc1ncn([C@@H]2O[C@H](CO)[C@@H](O)[C@H]2O)c(=O)n1 [ACT, 4-amino-1-β-D-ribofuranosyl-1,3,5-triazin-2(1H)-one]
- half-life ([2]; iv, 25 mg/kg, azacytidine administered i.v., mice plasma): 4 to 5 h
- effect on global DNA methylation in the kidneys after 48 hours (global DNA methylation): subsided
- reduction in global DNA methylation in the kidneys (global DNA methylation): 50%
- mean time to response [3]: six
- response ([3]; higher-risk groups): 61%
- response rate ([3]; lower-risk patients with refractory anemia): 60%
